{
  "source": "patent US4110345A",
  "about": "“2,2-Difluoro-1,3-benzodioxole-5-(α-alkyl)-acetic acids, and their use for the preparation of insecticides and acaricides” (American Cyanamid Company, priority 1977, dated 1978)",
  "key": {"[1]": {"test_system": "Third-Instar Tobacco Budworm Larvae", "experiment": "whole plant or invertebrate", "assay_type": "in vivo", "conditions": "Heliothis virescens, in Gossypium hirsutum, foliar, 72 h, larval counts after 72 hours; for mortality at 30 ppm: read-out: Average % Mortality, 30 ppm; for mortality at 100 ppm: read-out: Average % Mortality, 100 ppm; for mortality at 300 ppm: read-out: Average % Mortality, 300 ppm; for mortality at 900 ppm: read-out: Average % Mortality, 900 ppm", "description": "Residual insecticidal activity obtained with foliar treatment of cotton plants Young cotton plants with at least two expanded true leaves growing in 10 cm plastic pots were dipped, usually one leaf at a time in a 65% acetone-35% water solution of test compound with agitation for three seconds. The concentration of the compound in the solutions was 30 ppm, 100 ppm, 300 ppm or 900 ppm of active ingredient. After the leaves had dried, two leaves from each of two plants were excised and placed in petri dishes (90 mm × 100 mm) on moist filter paper (9 cm Whatman No. 1). Five third-instar tobacco budworm larvae were placed on each leaf and the petri dish capped. The infested dishes were than placed in a holding room with continuous light, ambient temperature of 80° F and 50% r.h. Larval counts were made after 72 hours. The remaining plants were placed under high intensity lights in the greenhouse adjusted to provide 14 hours of light per day. Leaf samples were assayed with third instar tobacco budworm larvae after 3, 7, 10 and 14 days exposure in the greenhouse. The data obtained are summarized in Table I. |Residual Insecticidal Activity of a Test Compound on Cotton Plants Using |Third-Instar Tobacco Budworm Larvae for Bioassay | * = Average % Mortality 20 TBW/Point"}, "[2]": {"test_system": "adult Boophilus microplus ticks", "experiment": "whole plant or invertebrate", "assay_type": "in vivo", "conditions": "Rhipicephalus microplus, in Bos taurus, topical, 48 h, read-out: Percent Adult Tick Mortality", "experimental": "The effectiveness of an acaricide prepared from the novel 2,2-difluoro-1,3-dioxole-5-(α-alkyl)acetic acids of the present invention for the control of adult Boophilus microplus ticks is determined in the following test wherein the test compound is dissolved in 10% acetone-90% water mixture in sufficient amounts to give solutions containing […] ppm of test compound.\nAdult engorged female ticks are dipped in the test solutions for 3 seconds and placed in individual containers and held for 48 hours in a room maintained at 80° F and 50% r.h. At the end of the holding period the ticks are examined and egg deposits counted. […]\nPercent Adult Tick Mortality"}},
  "note": "Read-outs that look alike come from different tables or passages of the source.",
  "data": [
    {"compound": "CC(C)C(C(=O)OC(C#N)c1cccc(Oc2ccccc2)c1)c1ccc2c(c1)OC(F)(F)O2", "note": "(stereo not shown) [drawing 6]", "values": [
      {"measurement": "mortality at 30 ppm", "setting": "[1]; 0 days residual", "result": 45, "unit": "%"},
      {"measurement": "mortality at 30 ppm", "setting": "[1]; 3 days residual", "result": 0, "unit": "%"},
      {"measurement": "mortality at 30 ppm", "setting": "[1]; 7 days residual", "result": 10, "unit": "%"},
      {"measurement": "mortality at 30 ppm", "setting": "[1]; 10 days residual", "result": 10, "unit": "%"},
      {"measurement": "mortality at 30 ppm", "setting": "[1]; 14 days residual", "result": 10, "unit": "%"},
      {"measurement": "mortality at 100 ppm", "setting": "[1]; 0 days residual", "result": 90, "unit": "%"},
      {"measurement": "mortality at 100 ppm", "setting": "[1]; 3 days residual", "result": 55, "unit": "%"},
      {"measurement": "mortality at 100 ppm", "setting": "[1]; 7 days residual", "result": 55, "unit": "%"},
      {"measurement": "mortality at 100 ppm", "setting": "[1]; 10 days residual", "result": 65, "unit": "%"},
      {"measurement": "mortality at 100 ppm", "setting": "[1]; 14 days residual", "result": 10, "unit": "%"},
      {"measurement": "mortality at 300 ppm", "setting": "[1]; 0 days residual", "result": 95, "unit": "%"},
      {"measurement": "mortality at 300 ppm", "setting": "[1]; 3 days residual", "result": 90, "unit": "%"},
      {"measurement": "mortality at 300 ppm", "setting": "[1]; 7 days residual", "result": 100, "unit": "%"},
      {"measurement": "mortality at 300 ppm", "setting": "[1]; 10 days residual", "result": 90, "unit": "%"},
      {"measurement": "mortality at 300 ppm", "setting": "[1]; 14 days residual", "result": 95, "unit": "%"},
      {"measurement": "mortality at 900 ppm", "setting": "[1]; 0 days residual", "result": 100, "unit": "%"},
      {"measurement": "mortality at 900 ppm", "setting": "[1]; 3 days residual", "result": 100, "unit": "%"},
      {"measurement": "mortality at 900 ppm", "setting": "[1]; 7 days residual", "result": 100, "unit": "%"},
      {"measurement": "mortality at 900 ppm", "setting": "[1]; 10 days residual", "result": 100, "unit": "%"},
      {"measurement": "mortality at 900 ppm", "setting": "[1]; 14 days residual", "result": 100, "unit": "%"}
    ]},
    {"compound": "CC(C)C(C(=O)OC(C#N)c1cccc(Oc2ccccc2)c1)c1ccc2c(c1)OC(F)(F)O2", "note": "(stereo not shown) [drawing 7]", "values": [
      {"measurement": "mortality at 7.3 ppm", "setting": "[2]", "result": 80.2, "unit": "%"},
      {"measurement": "mortality at 15.6 ppm", "setting": "[2]", "result": 85.8, "unit": "%"},
      {"measurement": "mortality at 31.2 ppm", "setting": "[2]", "result": 88.4, "unit": "%"},
      {"measurement": "mortality at 62.5 ppm", "setting": "[2]", "result": 99.7, "unit": "%"},
      {"measurement": "mortality at 125 ppm", "setting": "[2]", "result": 98.3, "unit": "%"}
    ]}
  ]
}
